Experimental findings from patent US20090170926A1, “Antiviral agents” (Monash Univeristy, priority 2004, published 2009) are described below.

The subject of data set [1] is hepatitis B in 2.2.15 human hepatoma cells. The data set can be described thus: Antiviral activity in 2.2.15 human hepatoma cells infected with hepatitis B (viral DNA in supernatant). Conditions: Hepatitis B virus; for EC50: read-out: EC50 (effective concentration for 50% inhibition of the replication of the virus); for EC90: read-out: EC90 (effective concentration for 90% inhibition of the replication of the virus). It counts as cell-based. The method, then: Tests of antiviral activity were performed in 2.2.15 human hepatoma cells infected with hepatitis B according to the method of Korba and Gerin, Antiviral Research, 19, 55-70 (1992). Briefly, cells were seeded into 96 well plates and cell media containing various concentrations of the compounds was added. Media was changed daily for 9 days and fresh media containing compound was added each day. On the 10th day, viral DNA in the supernatant was measured and the reduction in the amount of virus in the supernatant was calculated compared to cells incubated without drug. Six separate replicates were performed for each drug concentration. The effective concentration for 50% and 90% inhibition of the replication of the virus was determined from dose response curves.

The test system of data set [2] is HBV containing mutations associated with resistance to lamivudine (L180M and L180M/M204V in the HBV DNA polymerase) in HepG2 hepatoma cells. The data set can be described thus: HBV core protein level in HepG2 hepatoma cells infected with lamivudine-resistant HBV (non-denaturing Western blot). Conditions: day 5, HBV core protein vs controls. The data set is classed as cell-based, hepatitis B virus. The method, then: Antiviral activity was also examined in HepG2 hepatoma cells infected with HBV containing mutations associated with resistance to lamivudine (3TC). Two cell lines containing an L180M mutation in the HBV DNA polymerase, and a double L180M/M204V mutation were used. Cells were plated out in six well plates and allowed to attach overnight. Next day, the culture medium was replaced with either medium alone or medium containing the desired concentration of antiviral compound. Media was changed for fresh medium with or without antiviral compound on day 3. On day 5, supernatant and cell lysatcs were analysed for levels of HBV core protein by non-denaturing Western blot using an anti-HBV core antibody.
Results for some of the compounds are shown in Table 2 where a 50% reduction or more in measured level of the viral core protein compared to controls at a compound concentration of greater than 50 μmolar is designated +50% core reduction at less than 50 μmolar is designated ++ and 50% core reduction at less than 10 μmolar compound concentration is designated +++.
On the technique in general: A western blot detects proteins with antibodies after separation by electrophoresis.

Another data set is described as follows: Solubility in water. The following applies: read-out: solubility in water (fully soluble). The data set is classed as physicochemical. The method, then:
The ^1H NMR can also be run in D2O, compound 13 is fully soluble in water at 10 mg/mL

[3] abbreviates: 2.2.15 cells, 9 days treatment, viral DNA in supernatant on day 10.

Read-outs that look alike come from different tables or passages of the source.

Consider `Cc1ccc(S(=O)(=O)OC2=C(Br)C(=O)c3ccc4c(c3C2=O)C=CC(C)(C)O4)cc1`, for which the melting point – broadly, the temperature of the solid-liquid transition – is 181.5 to 184 °C. Consider `Cc1ccc(S(=O)(=O)OC2=C(Br)C(=O)c3ccc4c(c3C2=O)CCC(C)(C)O4)cc1`, for which the melting point lay within 168 to 169.5 °C. The same measure, in the same setting: the value for `CC1(C)CCc2c(ccc3c2C(=O)C(Cl)=C(Cl)C3=O)O1` was 158 to 160 °C. Still for that read-out and setting: the figure for `Cc1ccc(S(=O)(=O)OC2=C(Br)C(=O)c3c(ccc4c3CCC(C)(C)O4)C2=O)cc1` is 109 to 115 °C; for `Cc1ccc(S(=O)(=O)OC2=C(Br)C(=O)c3c(ccc4c3C=CC(C)(C)O4)C2=O)cc1` it is 167 to 168 °C. Regarding `CC1(C)C=Cc2c(ccc3c2C(=O)C=C(O)C3=O)O1` [Compound 1, 8-hydroxy-3,3-dimethyl-3H-naphtho[2,1-b]pyran-7,10-dione], the melting point worked out at 208 °C. Further, in data set [1], the EC50 amounted to 600 nM and the EC90 came to 3400 nM. The “≧50% core reduction” value in data set [2] is reported as “+++ (50% core reduction at less than 10 μmolar compound concentration is designated +++)”. Consider `CC1(C)CCc2c(ccc3c2C(=O)C=C(O)C3=O)O1` [Compound 2, 8-Hydroxy-3,3-dimethyl-1,2-dihydro-3H-naphtho[2,1-b]pyran-7,10-dione], for which the melting point fell in the range of 183.5 to 187 °C. Also, in data set [1] (setting [3]), the EC50 was 1100 nM and the EC90 turned out to be 1300 nM. `CC1(C)CCc2c(ccc3c2C(=O)C(Br)=C(O)C3=O)O1` [Compound 5, 9-bromo-8-hydroxy-3,3-dimethyl-1,2-dihydro-3H-naphtho[2,1-b]pyran-7,10-dione]: the melting point is 213 to 216 °C. In addition, the “≧50% core reduction” value in data set [2] was “++ (50% core reduction at less than 50 μmolar is designated ++)”. For `CC1(C)C=Cc2c(ccc3c2C(=O)C(Br)=C(O)C3=O)O1` [Compound 6, 9-Bromo-8-hydroxy-3,3-dimethyl-3H-naphtho[2,1-b]pyran-7,10-dione], the “≧50% core reduction” value in data set [2] is recorded as “+ (a 50% reduction or more in measured level of the viral core protein compared to controls at a compound concentration of greater than 50 μmolar is designated +)”. As to `CC1(C)C=Cc2c(ccc3c2C(=O)C=C(O)C3=O)O1` [Compound 13, Sodium 3,3-dimethyl-7,10-dioxo-7,10-dihydro-3H-benzo[f]chromen-8-olate], in data set [2], the “≧50% core reduction” value is on record as “+ (a 50% reduction or more in measured level of the viral core protein compared to controls at a compound concentration of greater than 50 μmolar is designated +)”. The solubility (as a rule, how much of the substance goes into solution per volume) in the data set “Solubility in water” is not below 10000 µg/mL.
